Test results as given in US20040022744A1, “Method of treating dental caries and remineralizing lesions” (priority 2001, published 2004).

Key:
[1] = tested on: microflora from primary root carious lesions (PRCL); assay: Ozone effect on microflora from primary root caries ex-vivo; assay type: cell-based; settings: for Mean ± SE of Total cfu (Log10): after 10 seconds of ozone treatment
From the text: Primary root carious lesions (PRCL) are a major clinical problem. The aim of this study was to establish if ozone could achieve effective microbial killing in PRCL. An ozone producing generator (Purezone Ltd., Ipswich, U.K.) was used in this ex-vivo study assessing the use of ozone on PRCL. In this study, soft PRCL requiring restoration were used as these are the most severe type of lesion found in humans. 20 freshly extracted teeth with PRCL requiring restoration were used. After plaque removal using a hand held standard fine nylon fiber sterile toothbrush with sterile water as a lubricant to cleanse the surface, each tooth was then isolated using sterile cotton wool rolls and dried using a dry sterile cotton wool roll. […] Each sample was weighed and immediately placed in 1 ml of Fastidious Anaerobe Broth (FAB). To each 1 ml of FAB containing a biopsy o carious or ozone treated carious dentine, sterile glass beads were added. They were vortexed for 30 seconds to facilitate the extraction of any micro-organisms from the carious dentine and disperse any aggregates. After decimal dilution with FAB, […] of these was spread on Fastidious Anaerobe Agar (LabM, Bury, Lancs., U.K.) supplemented with 5% (V/V) horse blood in an anaerobic chamber at 37° C. for four days. The mean±SE number of each colony type was counted and calculated.
The procedure of Example 2 was repeated except that ozonized water was applied to the lesion for 20 seconds.
The aims of these studies were to evaluate the efficiency of ozone on primary root caries and associated micro-organisms (Streptococcus sobrinus; TH 21 Streptococcus mutans; NCTC 10449). In study 1, 40 soft primary root carious lesions (PRCLs) from freshly extracted teeth were used and randomly divided into two groups to test the exposure to ozone for either 10 or 20 seconds. There was a significant (p<0.001) difference (Mean±SE) between the control samples for either 10 seconds (log10 5.91±0.15) or 20 seconds (log10 6.18±0.21) and ozone treated samples for either 10 seconds (log10 3.57±0.37) or 20 seconds (log10 3.77±0.42). In study 2, 40 sterile saliva coated glass beads were put into bijoux bottles with 3 mls of Todd Hewitt broth for control and test groups. S. sobrinus and S. mutans were inoculated and incubated anaerobically overnight. Each glass bead was washed with 2 mls of PBS. Immediately, 10 seconds of ozone was applied to the glass beads in the test groups. Subsequently, each glass bead in the test and control groups was placed in 3 mls of Todd Hewitt broth with six more sterile glass beads and were vortexed for 30 seconds. […] The number of each colony type was counted and calculated. […]

[2] = tested on: Streptococcus sobrinus; TH 21; assay: Ozone on micro-organisms on saliva coated glass beads; assay type: cell-based; settings: S. sobrinus on saliva coated glass beads, 10 seconds of ozone
From the text: The aims of these studies were to evaluate the efficiency of ozone on primary root caries and associated micro-organisms (Streptococcus sobrinus; TH 21 Streptococcus mutans; NCTC 10449). In study 1, 40 soft primary root carious lesions (PRCLs) from freshly extracted teeth were used and randomly divided into two groups to test the exposure to ozone for either 10 or 20 seconds. There was a significant (p<0.001) difference (Mean±SE) between the control samples for either 10 seconds (log10 5.91±0.15) or 20 seconds (log10 6.18±0.21) and ozone treated samples for either 10 seconds (log10 3.57±0.37) or 20 seconds (log10 3.77±0.42). In study 2, 40 sterile saliva coated glass beads were put into bijoux bottles with 3 mls of Todd Hewitt broth for control and test groups. S. sobrinus and S. mutans were inoculated and incubated anaerobically overnight. Each glass bead was washed with 2 mls of PBS. Immediately, 10 seconds of ozone was applied to the glass beads in the test groups. Subsequently, each glass bead in the test and control groups was placed in 3 mls of Todd Hewitt broth with six more sterile glass beads and were vortexed for 30 seconds. After decimal dilutions, […] were spread on blood agar plates supplemented with 5% (V/V) horse blood and placed in an anaerobic chamber at 37° C. for two days. The number of each colony type was counted and calculated. […]

SMILES: O=[O+][O-] [ozone]
- percentage of micro-organisms killed ([1]; 10 seconds of ozone, PRCL ex vivo): more than 99%
- Mean ± SE of Total cfu (Log10) ([1]; soft PRCL of extracted teeth): 3.57±0.37 Log10
- Mean ± SE of Total cfu (Log10) ([1]; soft PRCL of extracted teeth, listed as Ozone): 3.57 ± 0.37 Log10
- Total cfu (log10), mean±SE ([1]; after 20 seconds of ozone treatment, soft PRCL of extracted teeth): 3.77±0.42 log10
- colony count (log10), Mean ±SE [2]: 1.09±0.36 log10
